The record followed here is patent publication US20180161314A1, “Methods for Treating Hyperuricemia and Related Diseases” (Ardea Biosciences, Inc., priority 2010, published 2018).

Where two headings read alike, the source gives them in different places.

The test system of series [1] is gout patients with hyperuricemia. It counts as in vivo. To be noted: for Mean absolute sUA reduction / Mean sUA % change / Mean sUA level: ± SE; for % Response rate for sUA falling below 4 mg/dL / % Response rate for sUA falling below 5 mg/dL / % Response rate for sUA falling below 6 mg/dL: allopurinol 300 mg. How it is done:
Study Objectives • To measure the effect of drug 1, alone and in combination with allopurinol, on serum urate concentration. • To evaluate the safety and tolerability of drug 1 in combination with allopurinol.
The study is open-label in gout patients with hyperuricemia, involving 2 panels of ˜10-12 patients per panel. The panels may be enrolled simultaneously.
Panel 1 receives a once-daily dose of allopurinol 300 mg alone for 7 days and for an additional 7 days in combination with a once-daily dose of drug 1 400 mg. Patients then receive 7 days of a once-daily dose of drug 1 400 mg alone. Panel 2 follows the same regimen as panel 1, at doses of allopurinol 300 mg and drug 1 600 mg.
• Day −10 to Day 28: colchicine prophylaxis; or • Day −7 to Day 28: colchicine prophylaxis (for patients not washing out from ULT) • Days 1-7: allopurinol 300 mg qd • Days 8-14: drug 1 400 mg qd+allopurinol 300 mg qd • Days 15-21: drug 1 400 mg qd
• Day −10 to Day 28: colchicine prophylaxis; or • Day −7 to Day 28: colchicine prophylaxis (for patients not washing out from ULT) • Days 1-7: allopurinol 300 mg qd • Days 8-14: drug 1 600 mg qd+allopurinol 300 mg qd • Days 15-21: drug 1 600 mg qd
Gout patients on a urate lowering therapy (ULT), have previously taken a ULT or who have never taken a ULT are eligible to participate. Screening procedures to determine patient eligibility are performed within approximately 14 days of the first dose of study drug (Day 1). Subjects currently on ULT wash-out for at least 10 days before Day 1, and begin colchicine (Colcry® 0.6 mg qd, URL Pharma) as prophylaxis for gout flares at the beginning of the wash-out period. Subjects not on ULT begin colchicine administration at least 7 days prior to Day 1. Patients intolerant of colchicine during the screening period are considered screen failures and not enrolled. Prophylactic administration of colchicine continues for 7 days after the last dose of study medication.
Eligible patients report to the study center early morning on Days −1, 7, 14, and 21 (or the afternoon/evening the day before). Serial blood samples are collected on Days −1, 7, 14, and 21. Study medication is administered to each patient and taken orally every morning with approximately 240 mL of water, at approximately the same time of the morning every day, and approximately 30 minutes after finishing a full breakfast (approximately 650 Kcal and 35% fat); the breakfast is standardized on Days −1 to 21.
Inclusion Criteria • Patient is male or post-menopausal or surgically sterile female. • Patient is 18-80 years of age. • Patient meets one or more criteria for the diagnosis of gout as per the American Rheumatism Association (ARA) Criteria for the Classification of Acute Arthritis of Primary Gout (Appendix B). • Patient sUA≥8 mg/dL at screening. • Patient willing and able to give informed consent and adhere to visit/protocol schedules • No clinically relevant abnormalities in blood pressure (BP), heart rate (HR), body temperature and respiratory rate as per Investigator's judgment.
Subject urate serum levels are recorded, and any safety concerns assessed (by adverse events, clinical laboratory test results, vital signs, 12-lead ECGs, and physical examinations). […] Urate serum concentrations are evaluated for treatment- and/or time-dependent changes relative to baseline (Day −1), and may be expressed both in standard units (mg/dL) and as changes from baseline (e.g., percent change, absolute change, maximal change, and time or day of maximal change).
Drug 1 was tested according to the protocol described in Example 21.
Serum urate levels were measured and absolute and % reduction levels from baseline calculated, for Allopurinol monotherapy, Drug 1 monotherapy and Allopurinol plus Drug 1 combination.

The subject of series [2] is hyperuricemic subjects with symptomatic gout. The series can be described thus: Pilot study of drug 1 versus placebo and open-label allopurinol in hyperuricemic subjects with symptomatic gout (Examples 1, 2, 20). It counts as in vivo, human. How it is done:
Study Objectives • To compare the proportion of subjects whose sUA level is <6.0 mg/dL following 2 weeks of continuous treatment with drug 1 compared to allopurinol and placebo. • To evaluate the percent reduction from baseline in sUA levels following 2 weeks of continuous treatment with drug 1 in combination with allopurinol. • To evaluate the proportion of subjects whose sUA levels are <6.0 mg/dL, <5.0 mg/dL and <4.0 mg/dL at each visit. • To evaluate the absolute and percent reduction from baseline in sUA levels at each visit. • To evaluate the maximum percent reduction in sUA levels from baseline during the entire treatment period. • To evaluate percent change in 24-hour urine uric acid level from baseline to Day 15. • To evaluate the safety and tolerability of drug 1 in subjects with gout. • To evaluate the pharmacokinetics, safety and tolerability of drug 1 in combination with allopurinol in subjects with gout.
A randomized, double-blind, placebo-controlled, dose titration, safety and pharmacodynamics pilot study, in approximately 26 hyperuricemic subjects with symptomatic gout enrolled at 2-3 investigational sites in N America, of: • drug 1 versus placebo and open-label allopurinol (Cohort 1); and • drug 1 in combination with allopurinol versus continued allopurinol alone (Cohort 2)
Subjects are randomized 7 days prior to Day 1 in a double-blind fashion to receive drug 1, drug 1 matching placebo, or open-label allopurinol (Cohort 1) or drug 1 or drug 1 matching placebo in combination with allopurinol (Cohort 2).
To reduce the incidence of gout flares, colchicine 0.6 mg qd is administered to all subjects starting 14 days prior to the Baseline (Day 1) visit. Subjects continue colchicine administration throughout the Treatment Period, discontinuing at the End of Study visit (one week after the last dose of study medication).
Cohort 1 approx 20 subjects randomized in 2:1:1 ratio treatment groups—drug 1:placebo:allopurinol.
Subjects randomized to double-blind treatment: • approx 10 subjects randomized to receive drug 1 200 mg qd (4 drug 1 50 mg capsules/day) for one week, followed by drug 1 400 mg qd (8 drug 1 50 mg capsules/day) for one week. • 5 subjects randomized to receive drug 1 matching placebo qd for 2 weeks (week 1-4 drug 1 matching placebo capsules; week 2-8 drug 1 matching placebo capsules)
Subjects randomized to open-label treatment: • 5 subjects randomized to receive allopurinol 300 mg tablets qd for 2 weeks Cohort 2 approx 6 subjects randomized in 5:1 ratio treatment groups—drug+allopurinol:placebo+allopurinol
For Cohorts 1 and 2, subjects randomized to double-blind treatment take drug 1 or drug 1 matching placebo every 24 hours (±1 h) (morning dose) for a period of 2 weeks. For Cohort 1, subjects randomized to open-label treatment take allopurinol every 24 hours (±1 h) (morning dose) for a period of 2 weeks.
Subjects are requested to then drink approximately 240 mL of water 1-2 hours after dosing.
1. Male or post-menopausal or surgically sterile female. 2. 18-75 years of age. 3. Hyperuricemic, defined as: Cohort 1: Screening serum uric acid is ≥8 mg/dL Cohort 2: Screening serum uric acid is ≥10 mg/dL 4. Subject meets one or more of the 1977 American Rheumatism Association (ARA) criteria for the diagnosis of acute arthritis of primary gout. 5. Subject is willing and able to give informed consent and adhere to visit/protocol schedules.
Blood samples (4.5 mL) are collected and sUA levels determined at Screening (repeated as necessary prior to Day 1), Baseline (Day 1) (1 hour and 8 hours post-dose), Day 8 (trough, 1 hour and 8 hours post-dose), Day 9 (24 hours after Day 8 dose), and Day 14 (trough and 8 hours post-dose), Day 15 and End of Study. An additional sUA level is obtained on Day 7 for Cohort 2 subjects prior to the first dose of allopurinol.
Primary pharmacodynamics parameter is the proportion of subjects with serum uric acid <6.0 mg/dL following 2 weeks of treatment. […]

Setting [3] is: Drug 1 400 mg panel: allopurinol 300 mg qd days 1-7, combination days 8-14, drug 1 400 mg qd alone days 15-21.
Where [4] appears, read: Drug 1 600 mg panel: allopurinol 300 mg qd days 1-7, combination days 8-14, drug 1 600 mg qd alone days 15-21.

For `Oc1ncnc2[nH]ncc12` [Allopurinol, 1H-pyrazolo[3,4-d]pyrimidin-4(2H)-one, reference compound], in series [1] (setting [3]), the “Mean absolute sUA reduction” value is -3.1 ± 0.28 mg/dL, the “Mean sUA % change” value is −32.2 ± 2.1% and the “Mean sUA level” value is on record as 6.5 ± 0.16 mg/dL. Also, in series [1] (Drug 1 400 mg panel), the “% Response rate for sUA falling below 4 mg/dL” value was found to be 0%, the “% Response rate for sUA falling below 5 mg/dL” value was determined as 0% and the “% Response rate for sUA falling below 6 mg/dL” value is given as 10%. In series [1] (setting [4]), the “Mean absolute sUA reduction” value is -2.6 ± 0.26 mg/dL, the “Mean sUA % change” value was −28.7 ± 2.4% and the “Mean sUA level” value amounted to 6.3 ± 0.31 mg/dL. For the same compound, in series [1] (Drug 1 600 mg panel), the “% Response rate for sUA falling below 4 mg/dL” value is 0%, the “% Response rate for sUA falling below 5 mg/dL” value turned out to be 10% and the “% Response rate for sUA falling below 6 mg/dL” value came out at 30%. Besides, in series [2] (Cohort 1, Day 14, responders/subjects, drug 1 200 mg qd 1 week then 400 mg qd 1 week, allopurinol 300 mg qd 2 weeks), the “Responders Day 14 (those with sUA <6 mg/dL)” value is 5/5. Besides, the Adverse event result in series [2] (one subject on allopurinol 300 mg qd) is “hyperaldosteronemia”.
